This is an account of results in patent publication US20140086938A1, “METHODS OF INHIBITING TUMOR GROWTH USING TTK ANTAGONISTS” (University Health Network, priority 2007, published 2014).

Assay in all cases: SP600125 SRB growth inhibition
Format in all cases: cell-based

The subject of assay [1] is MDA-MB-231. Conditions: Homo sapiens, 120 h, SRB assay 5 days after addition. The protocol:
(§1) Compound SP600125 was purchased from Biomol International (PA, USA). 10 mM stock was prepared in 100% DMSO. Cells were seeded at various numbers, ranging from 1500 to 4000 per 80 μl in each well according to cell growth rate, into 96 well plates, 24 hours before compound overlay. The 10 mM SP600125 compounds stock in 100% DMSO was diluted with Opti-MEM I Reduced-Serum Medium (Invitrogen, Burlington, ON, Canada) to concentrations range from 50 nM to 250 μM. 20 μl from each concentration was overlay to cells to make the final concentrations range from 10 nM to 50 μM. The cells were cultured for 5 days before Sulforhodamine B assay. SRB assay is performed to assess cell survival. SRB is a water-soluble dye that binds to the basic amino acids of the cellular proteins. Thus, colorimetric measurement of the bound dye provides an estimate of the total protein mass that is related to the cell number. the cells are fixed in situ by gently aspirating off the culture media and adding 50 μl ice cold 10% Tri-chloroacetic Acid (TCA) per well and incubate at 4° C. for 30-60 min. The plates are washed with tap water five times and allowed to air dry for 5 min. Add 50 μl 0.4% (w/v) Sulforhodamine B solution in 1% (v/v) acetic acid per well and incubate for 30 min at RT for staining. Following staining, plates are washed four times with 1% acetic acid to remove any unbound dye and then allowed to air dry for 5 min. Stain is solubilized with 100 ul of 10 mM Tris pH 10.5 per well. Absorbance is read at 570 nm. The cell survival percentage in each compound concentration was calculated over the cell DMSO control, which was growing in the presence of 0.1% DMSO (0.5% in the case of 50 μM compounds). The GI50 were calculated using GraphPad PRISM software.
(§2) Cell viability was assessed using the SRB assay described herein, which was performed 5 days after the addition of SP600125 to the culture media. Prism software was used to calculate GI50 (concentration of the compound required to achieve 50% growth inhibition) (Table 3).

Assay [2] has as its system MDA-MB-468. Conditions: Homo sapiens, 120 h, SRB assay 5 days after addition. The protocol: as §1, §2
Background: In SRB staining, fixed cells bind dye roughly in proportion to their protein.

The test system of assay [3] is BT474. The conditions noted are these: Homo sapiens, BT-474, 120 h, SRB assay 5 days after addition. The protocol:
as §1, §2

Assay [4] deals with SKBr-3. The conditions noted are these: Homo sapiens, SK-BR-3, 120 h, SRB assay 5 days after addition. The protocol: as §1, §2
Assay [5] concerns MCF-7. Conditions: Homo sapiens, MCF7, 120 h, SRB assay 5 days after addition. The protocol:
as §1, §2

Assay [6] has as its system Hs578T. Conditions: Homo sapiens, Hs-578T, 120 h, SRB assay 5 days after addition. How it is done:
as §1, §2

Assay [7] deals with MDA-MB-435. Conditions: Homo sapiens, 120 h, SRB assay 5 days after addition. How it is done:
as §1, §2

Assay [8] has as its system 184A. The conditions noted are these: Homo sapiens, 120 h, SRB assay 5 days after addition. How it is done:
as §1, §2

In assay [9] the test system is HCC1419. The conditions noted are these: Homo sapiens, 120 h, SRB assay 5 days after addition. How it is done: as §1, §2
For assay [10], the system named is MDA-MB-453. The conditions noted are these: Homo sapiens, 120 h, SRB assay 5 days after addition. The protocol: as §1, §2
In assay [11] the test system is T47D. The conditions noted are these: Homo sapiens, 120 h, SRB assay 5 days after addition. The protocol:
as §1, §2

Assay [12] concerns MDA-MB-330. Conditions: Homo sapiens, 120 h, SRB assay 5 days after addition. The protocol:
as §1, §2

As a reminder, the GI50 is the concentration that inhibits growth by half. Low readings indicate greater sensitivity of the cells, high ones lower sensitivity of the cells.

On to `Oc1c2ccccc2c2c3c(cccc13)N=N2` [SP600125, anthra(1,9-cd)pyrazol-6(2H)-one 1,9-pyrazoloanthrone], for which the GI50 in assay [1] was 894 nM; in [2], 483 nM; in assay [3], 8580 nM; in [4], 812 nM; in assay [5], 672 nM; in [6], 1840 nM. The 50% growth inhibitory concentration (GI50) in assay [7] turned out to be 822 nM; in assay [8], 1590 nM; in [9], 10000 nM; in [10], 2300 nM; in assay [11], 2520 nM; in assay [12], 7020 nM.
